Measured values reported in article PMC12290687, “Phenotypic Screening of the MMV Global Health Priority Box Identifies Selective Compounds with Anti-Toxoplasma gondii Activity” (ACS Omega, 2025).
Read-outs that look alike come from different tables or passages of the source.

Tests used:
[1] = system: T. gondii intracellular tachyzoites; experiment: microbe, parasite or virus in culture; assay type: cell-based, Toxoplasma gondii RH-2F1; settings: half effective concentration against T. gondii intracellular tachyzoites in HFF, MOI 1:1, 72 h, duplicates in three independent experiments
Experimental: (§1) Toxoplasma gondii RH-2F1 tachyzoites, which express β-galactosidase, were maintained in human foreskin fibroblasts (HFFs). HFFs were cultured in Dulbecco’s Modified Eagle Medium (DMEM) supplemented with 10% fetal bovine serum (FBS), 2 mM L-glutamine, and 40 μg/mL gentamicin (referred to as D10) and incubated at 37 °C in a 5% CO2 humidified atmosphere. For infection assays, confluent monolayers were maintained in DMEM with 2% FBS (D2) prior to parasite inoculation.
(§2) For in vitro assays in 96-well plates, HFFs were seeded at 5 × 10^3 cells/well in the D10 medium and incubated for 12–16 h to allow adherence. […] For antiparasitic assays, HFFs were infected with RH-2F1 tachyzoites at a multiplicity of infection (MOI) of 1:1 for 3 h.
Parasite proliferation was assessed by quantifying β-galactosidase activity, as previously described. Briefly, after the 72 h incubation, cells were lysed in 100 μL of lysis buffer (100 mM HEPES pH 7.5, 1 mM MgSO4, 0.1% Triton X-100, 5 mM DTT) for 15 min at room temperature. […] Following a 30 min incubation at 37 °C, absorbance was measured at 570 nm using a Varioskan LUX microplate reader (Thermo Scientific). Each assay included viability controls (untreated infected cells), solvent controls (1% DMSO), a positive control (1 μM pyrimethamine), and experimental blanks (no cells). All conditions were tested in two biological replicates in three independent experiments.
Compounds from the GHPB library were screened at a final concentration of 1 μM in infected HFF monolayers, using the β-galactosidase assay as a readout for parasite viability after 72 h.

[2] = Cytotoxicity assay (resazurin reduction) in uninfected HFFs; assay type: cell-based, human; settings: human
Experimental: as §1, §2
(§3) The resazurin assay was used to evaluate the compound cytotoxicity in uninfected HFFs. Following 72 h treatment, 100 μM resazurin was added to each well and incubated for 4 h at 37 °C. Fluorescence was measured using excitation/emission wavelengths of 565/590 nm. Controls included untreated cells (viability control), 1% DMSO (solvent control), 50 μM pyrimethamine (reference drug), and blank wells (no cells). Each condition was tested in duplicate in three independent experiments.

[3] = system: P. falciparum ring stages; settings: literature report, reference mark not given; cited from earlier work
[4] = system: human foreskin fibroblasts (HFF); experiment: Cytotoxicity assay (resazurin reduction) in uninfected HFFs; assay type: cell-based; settings: half cytotoxic concentration against HFF, 72 h, highest concentration tested 50 μM
Experimental: as §1, §2, §3

Plasmodium liver stages = settings: literature report, reference mark not given; cited from earlier work
HepG2 cell line = system: HepG2 cell line; parameters: method as in Timoumi et al.; settings: ref Timoumi et al.; cited from earlier work
HEK293 cell line = system: HEK293 cell line; parameters: method as in Timoumi et al.; settings: ref Timoumi et al.; cited from earlier work
[5] = parameters: method as in Timoumi et al.; settings: doses of 350–500 mg/kg; ref Timoumi et al.; cited from earlier work
VERO/RAW cells = system: VERO/RAW cells; parameters: method as in Tali et al.; settings: ref Tali et al.; cited from earlier work
H. contortus = system: H. contortus; parameters: method as in Shanley et al. (2024); settings: ref Shanley et al. (2024); cited from earlier work
[6] = uninfected human foreskin fibroblasts (HFF), half cytotoxic concentration against HFF, 72 h, highest concentration tested 50 μM, read-out: CC50 (μM) ± SD

Compound	EC50 ([1]; Toxoplasma gondii) [µM]	CC50 at 72 h [2, 6] [µM]	EC50 [1] [µM]	CC50 [4] [µM]	other results
CCOc1ccccc1NC(=O)Cn1c(=O)n(Cc2ccccc2)c(=O)c2c(C)c(C(=O)N(C)C)sc21 [MMV006430]	0.3 ± 0.03	> 50			time to activity against P. falciparum ring stages (fast-acting) [3]: under 65 h
O=C(Nc1ccc(Cl)c(C(F)(F)F)c1)Nc1ccc(Cl)c(C(F)(F)F)c1 [MMV027339]			0.5 ± 0.02	5.51 ± 0.86	
CS(=O)(=O)c1ccc(-c2cnn3c2NC(c2cccc(S(=O)(=O)C4CC4)c2)CC3)cc1 (stereo not shown) [MMV674132]	0.19 ± 0.04	> 50			activity against Plasmodium liver stages (Plasmodium liver stages): activity; time to activity against P. falciparum ring stages (fast-acting) [3]: under 65 h
O=C(NC(=O)c1ccccc1Cl)Nc1ccc(OC(F)(F)F)cc1 [MMV689404, Triflumuron]	0.49 ± 0.03				CC50 at 72 h ([2]; half cytotoxic concentration against HFF, 72 h, highest concentration tested 50 μM, read-out: CC50 (μM) ± SD): > 50 µM; CC50 (HepG2 cell line): 120000 nM; CC50 (HEK293 cell line): 200000 nM; in vivo toxicity finding [5]: hepatotoxicity and oxidative stress
CN(C)C1CC(NC(=O)c2ccc(Nc3nccc(-c4ccc(Cl)c(C(F)(F)F)c4)n3)cc2)C1 (stereo not shown) [MMV884814]			0.76 ± 0.06	4.1 ± 1.18	
O=C(Nc1ncccc1O)c1ccc(N2CCOCC2)nc1 [MMV1103183]			0.72 ± 0.39	> 50	
O=C(Nc1ncccc1O)c1ccc(Cn2cccn2)cc1 [MMV1266067]			0.73 ± 0.13	> 50	
Cn1ccnc1SCC(=O)Nc1ccc(C(=O)Nc2ncccc2O)cc1 [MMV1267536]	0.19 ± 0.03	29.2 ± 2.79			activity against Plasmodium liver stages (Plasmodium liver stages): activity
O=C(Nc1ncccc1O)c1ccc(S(=O)(=O)NCCc2cccs2)cc1 [MMV1435700]			0.34 ± 0.08	20 ± 3.8	
Cn1c(O)c(C(=O)Nc2ccc(Cl)c(Cl)c2)c(=O)n(C)c1=O [MMV1634081]			0.52 ± 0.01	30.8 ± 4.55	
CO/C=C(/C(=O)OC)c1ccccc1COc1c(C)c(-c2ccc(C)cc2C)nn1C [MMV1794211]	0.01 ± 0.01				CC50 (VERO/RAW cells): > 10000 nM
COc1cc(/C=N/c2c(SC(F)(F)F)c(C#N)nn2-c2c(Cl)cc(C(F)(F)F)cc2Cl)ccc1O [MMV1794214, Vaniliprole]	0.07 ± 0.04				CC50 at 72 h [2]: > 50 µM; effect on H. contortus (H. contortus): impairs motility and larval development
CCc1nc(N)nc(N)c1-c1ccc(Cl)cc1 [Pyrimethamine, reference compound]	0.38 ± 0.03	> 50			
